In one data set the test system is thymocytes. As to the kind of experiment: thymocyte proliferation co-stimulated with Con A and IL-2. It is filed as cell-based, mouse (Balb/C). The note with it: co-stimulated with Con A and IL-2, various concentrations. The method, then:
3506, 3556, 3563, 3576, 3581, 3582 and 3584 on thymocyte proliferation and activation, co-stimulated with Concanavalin A (Con A) and interleukin-2 (IL-2), at various concentrations of the compounds (IC50). Con A and IL-2 together stimulate T cell proliferation and differentiation.
Thymuses, obtained from normal, female Balb/C mice, were dissociated and plated into 96-well plates at a density of 2×10^5 cells/well. Con A ([…]) and IL-2 (15 U/ml) were added to the wells. The cells were incubated for 4 days at 37° C. On day 4, the cells were pulsed with tritiated thymidine and incubated for an additional 4 hours. Incorporated tritiated thymidine of harvested cells was determined in a liquid scintillation counter. Results plotted as dose concentration versus proliferation for inventive compounds nos. 3506, 3556, 3563, 3576, 3581, 3582 and 3584 are shown in FIGS. 6 (3506), 7 (3556), 8 (3563), 9 (3576), 10 (3581 and 3582) and 11 (3584). Respective concentrations of inventive compound (shown in the figures) were added two hours prior to Con A and IL-2 activation. Background counts were less than 200 cpm.

Data set [1] concerns polymorphonuclear leukocytes. Conditions: U.S. Pat. No. 4,636,507; cited from earlier work.
The next data set relates to Balb/3T3 cells. Kind of data set: Balb/3T3 viability (cytotoxicity) assay with BCECF. It is filed as cell-based. The note with it: BCECF fluorescence; concentrations shown in FIGS. 1, 2 and 4; control value of 100%. The method, then:
In conjunction with the Balb/3T3 proliferation assay, a related viability assay was conducted to assess the cytotoxicity of compounds which inhibit proliferation in this system. The assay protocol was identical to that performed above except that tritiated thymidine was not added after the 24 hour incubation with PDGF. In this cytotoxicity assay, after incubating the cells, a 10 μM solution of BCECF was added and the cells were incubated for 30 minutes at 37° C. Following this incubation, BCECF was replaced with PBS and the plate read for fluorescence in a Millipore cytofluorometer. Data obtained was plotted as a percent of control versus concentration of inventive compound tested. FIGS. 3 and 5 represent the results of this viability assay, for compounds nos. 3556 and 4500, respectively.

Data set [2] concerns mouse bone marrow cells (CFU-GM). As to the kind of experiment: CFU-GM colony assay, effect on normal mouse bone marrow cells. Conditions: for cytotoxicity to normal mouse marrow cells: 8 h incubation, 7 days colony growth; for effect on normal cells compared to known chemotherapeutic compounds: in vitro, vs vinblastine, 5-fluorouracil, doxorubicin or cisplatinum. The class given is cell-based. The text has this: This example illustrates a method for examining an effect of the inventive compounds, showing potential as cancer therapies, on normal cells. This assay has been used clinically to evaluate recovery of patients' marrow following chemotherapy or radiation. In this specific example, inventive compounds nos.
Mouse bone marrow cells are useful in this assay because they produce colonies, which can later be counted, in culture. The colonies are called colony forming unit-granulocyte macrophage (CFU-GM) and depend on a source of colony stimulating factor for growth.
Cells were cultured with inventive compounds nos. 3563, 3576, 3581, 3584 and 4500, to comparatively evaluate an effect on normal cells of inventive compounds identified as potential cancer therapies. Procedurally, cells were incubated for 8 hours with various concentrations of these compounds. A negative control without any compound was simultaneously prepared. After 8 hours, the incubated cells were washed thoroughly and a consistent number were subsequently plated to obtain CFU-GM. Colonies were permitted to grow for 7 days at 37° C., in 5% CO2. After 7 days of growth, colony growths were counted microscopically. Data obtained in this assay for inventive compounds nos. 3563, 3576, 3581, 3584 and 4500 are plotted in FIGS. 12, 13, 14, 15 and 16, respectively. The data in the figures are shown to compare the colonies counted for cells incubated with varying concentrations of the compounds tested against the negative control, without compound. At concentrations ranging from 5 to 30 μM, more colonies existed for cells incubated with the inventive potential cancer compound than with known, chemotherapeutic agents. Compound no.

The subject of a further data set is 293-EBNA cells. Kind of data set: 293-EBNA cell viability (alamarBlue). It is filed as cell-based. The method, then: The effect of respective inventive compounds on the viability of 293-EBNA cells was measured by a colorimetric assay that uses the alamarBlue® dye (purchased from Alamar Biosciences, Inc.) to report cell proliferation, viability and cytotoxicity. This dye is an oxidation-reduction (Redox) indicator that changes color in response to chemical reduction of growth medium resulting from cell growth. The general procedure involves adding alamar-Blue® in an amount equal to 10% of the culture volume, returning the culture to incubator for four hours, and measuring the absorbance at 570 nm after subtraction of background absorbance at 600 nm.

Data set [3] relates to human stromal cells. Kind of data set: PDGF-induced proliferation in human stromal cells. It is filed as cell-based. The note with it: 50 ng/ml PDGF; compound added one hour prior; various concentrations (FIG. 1). The method, then:
3506 on PDGF-induced proliferation in human stromal cells. Procedurally, human stromal cells were starved in serum-free media for 24 hours and then stimulated with 50 ng/ml PDGF. Compound no. 3506 was added at various concentrations one hour prior to PDGF stimulation and pulsed for 24 hours. Cells were harvested and cell proliferation measured having background counts (i.e., starved cells) at about 10% of control levels.

A further data set deals with certain cytokines. Conditions: U.S. Pat. Nos. 4,965,271 and 5,096,906; cited from earlier work.
Data set [4] concerns tumor necrosis factor (TNF). The note with it: PTX recipients; cited from earlier work.
The next data set deals with PAPH. The note with it: specific activation pathway that does not involve PI; cited from earlier work.
For data set [5], the system named is human stromal cells. As to the kind of experiment: Comparative: PDGF-BB-induced proliferation in human stromal cells. It is filed as cell-based. Conditions: 50 ng/ml PDGF-BB; drugs added one hour prior (FIG. 23). As for the experimental part: Human stromal cells were starved in serum-free media for 24 hours and then stimulated with 50 ng/ml PDGF-BB. The drugs were added at various concentrations one hour prior to PDGF stimulation. Tritiated thymidine was added at the time of PDGF stimulation and pulsed for 24 hours. Cells were harvested and cell proliferation measured (FIG. 23). Background counts (i.e., starved cells) were about 10% of control levels.

Another data set deals with JR-CSF strain of HIV-1. Kind of data set: JR-CSF HIV-1 infection of human peripheral blood lymphocytes (p24 antigen ELISA). The class given is cell-based, HIV-1 (in human PBL). The note with it: 10 and 20 μM. The method, then:
In a protocol for infecting a PBL cell suspension, JR-CSF HIV-1 was clarified at low-speed centrifugation (2,000-3,000 rpm) or filtration and stored in aliquots at -70° C. To maintain consistent titers, HIV-1 aliquots were not subjected to repeated freezing and thawing and any remainder was discarded. Virus aliquots were thawed at room temperature or under cold running water for more rapid thawing and maintained in ice after thawing. Just prior to infection of PBL cells, the supernatant or dilution were warmed to room temperature.
Human PBL cells taken from a suitable donor were centrifuged down at 1000 rpm for 5-10 minutes at room temperature. While cells were spinning, the virus inoculum was prepared in medium by adding 10 μg/ml Polybrene®. The centrifuged cells were resuspended in virus inoculum, using 1 ml of virus inoculum per 10^7 cells. A more efficient HIV-1 infection is obtained with smaller amounts of inoculum. The cells were incubated at 37° C. in the presence of virus inoculum for 2 hours, shaking the suspension every half hour. After 2 hours, the suspension was spun down, the virus inoculum removed and the cells were washed with 10 ml of fresh media.
The infected cells, inoculated with virus at a concentration of 10 ng virus/10^6 PBL, were washed and resuspended in growth medium ([…] RPMI/20 % FBS/10 units/ml IL-2). […]
(In general: An ELISA detects its analyte on a solid surface through an enzyme-linked reagent.)

Data set [6] relates to mouse femoral marrow CFU-GM. Conditions: in vivo.
Excerpt: Mouse spleen conditioned-medium, at a concentration of 2%, was used in this assay. The medium and semi-solid culture mix were procured from Stem Cell Technologies in Vancouver, BC.

Structures are written as SMILES.

Take `CCCCCCCCCCCCCCNCCCCCCCCCCCn1c(=O)c2c(ncn2C)n(C)c1=O` [compound 3582]: the “effect on thymocyte proliferation and activation” value in the data set with thymocytes is given as “inhibitive effect”.
As for `CC(O)CCCCn1c(=O)c2c(ncn2C)n(C)c1=O` (centres unmarked) [M1, 1-(5-hydroxyhexyl)-3,7-dimethylxanthine], the “chemotaxis in polymorphonuclear leukocytes responding to chemotaxis stimulation” value in data set [1] was “enhance chemotaxis”.
Consider `CCCCCCN(C)CCCCCCCCCCCn1c(=O)c2c(ncn2C)n(C)c1=O` [compound 4500], for which the “cytotoxicity at the concentrations that inhibit proliferation” value in the data set on Balb/3T3 cells is reported as “not cytotoxic to any cells”. Moreover, the “cytotoxicity to normal mouse marrow cells” value in data set [2] is “virtually no toxicity at elevated concentrations for the normal mouse marrow cells”. Further, the “concentration at which there is still little cytotoxicity” value with 293-EBNA cells was greater than 32 µM.
`CCCCCCCCCCCNCCCCCCn1c(=O)c2c(ncn2C)n(C)c1=O` [Compound no. 3506]: the “inhibition of PDGF-induced proliferation” value with human stromal cells [3] is “inhibition of PDGF-induced proliferation”. The “effect on thymocyte proliferation and activation” value with thymocytes is reported as “inhibitive effect”.
With `CC(=O)CCCCn1c(=O)c2c(ncn2C)n(C)c1=O` [PTX, 1-(5-oxohexyl)-3,7-dimethylxanthine], the “chemotaxis in polymorphonuclear leukocytes responding to chemotaxis stimulation” value in [1] is recorded as “enhance chemotaxis”. The “effect on activity of certain cytokines to affect chemotaxis” value in the data set on certain cytokines is given as “inhibit activity of certain cytokines”. Besides, the “TNF levels in normal volunteers” value in [4] is “TNF levels were higher”. The “effect on PAPH” value in the data set with PAPH was “blocks PAPH”.
Consider `CC(CCCCn1c(=O)c2c(ncn2C)n(C)c1=O)N(C)C` (centres unmarked) [B, 1-(5-dimethylaminohexyl)-3,7-dimethylxanthine], for which the “concentrations at which activity on PDGF-induced proliferation is apparent” value in the data set on human stromal cells [5] is reported as “millimolar concentrations”.
For the molecule `CCCCCCCCCCCCCCCCNCCCCCCCCCCCn1c(=O)c2c(ncn2C)n(C)c1=O` [compound 3584], in the data set with thymocytes, the “effect on thymocyte proliferation and activation” value is given as “inhibitive effect”. Further, the “effect on normal cells compared to known chemotherapeutic compounds” value in [2] is given as “less deleterious to normal cells”.
In the case of `CC(=O)CCCCCCn1c(=O)c2c(ncn2C)n(C)c1=O` [A, 1-(7-oxooctyl)-3,7-dimethylxanthine], the “concentrations at which activity on PDGF-induced proliferation is apparent” value with human stromal cells [5] was “millimolar concentrations”.
Regarding `CCCCCCN(CCCCCC)CCCCCCCCCCCn1c(=O)c2c(ncn2C)n(C)c1=O` [compound 3590], the “concentration at which there is still little cytotoxicity” value in the data set on 293-EBNA cells was greater than 32 µM.
On to `CCCCCCCCCCNCCCCCCCCCCCn1c(=O)c2c(ncn2C)n(C)c1=O` [compound 3581], for which the “effect on thymocyte proliferation and activation” value with thymocytes was “inhibitive effect”. In data set [2], the “effect on normal cells compared to known chemotherapeutic compounds” value was “less deleterious to normal cells”.
Turning to `CCCCCCCCCCCCN(C)CCCCCCCCCCCn1c(=O)c2c(ncn2C)n(C)c1=O` [compound 3576], the “effect on thymocyte proliferation and activation” value with thymocytes is listed as “inhibitive effect”. Further, the “effect on normal cells compared to known chemotherapeutic compounds” value in [2] was “less deleterious to normal cells”.
With `COc1cc(CNCCCCCCCCCCCn2c(=O)c3c(ncn3C)n(C)c2=O)cc(OC)c1OC` [compound 3593], in the data set with 293-EBNA cells, the “concentration at which there is still little cytotoxicity” value was greater than 32 µM.
Take `CCCCCCCCNCCCCCCCCCCCn1c(=O)c2c(ncn2C)n(C)c1=O` [compound 3556, 1-(11-octylaminoundecyl)-3,7-dimethylxanthine]: the “cytotoxicity at the concentrations that inhibit proliferation” value with Balb/3T3 cells is on record as “not cytotoxic to any cells”. Moreover, in the data set with thymocytes, the “effect on thymocyte proliferation and activation” value is on record as “inhibitive effect”. In addition, the “concentration at which cytotoxicity becomes significant” value in the data set with 293-EBNA cells is greater than 10 µM. In addition, the “effect on HIV-1 viral infection” value in the data set with JR-CSF strain of HIV-1 is recorded as “virtually eliminated viral infection”.
In the case of `O=c1[nH]cc(F)c(=O)[nH]1` [5-fluorouracil], the “CFU-GM detectable in mouse femoral marrow” value in data set [6] is “no CFU-GM were detectable”.
With `CCCCCCCCCCCCNCCCCCCCCCCCn1c(=O)c2c(ncn2C)n(C)c1=O` [Compound no. 3563], the “effect on thymocyte proliferation and activation” value in the data set on thymocytes is given as “inhibitive effect”. Moreover, in data set [2], the “cytotoxicity to normal mouse marrow cells” value is recorded as “most cytotoxic to proliferative potential of the mouse marrow cells” and the “effect on normal cells compared to known chemotherapeutic compounds” value is listed as “less deleterious to normal cells”.
